IC50 data for 18 molecules are collected here from ChEMBL document CHEMBL3804772, “Enantioselective synthesis and antioxidant activity of 3,4,5-substituted piperidine derivatives” (Bioorg Med Chem Lett, 2016).

SMILES strings stand for the structures. A value given as a limit tells only on which side of the number the result lay.

For orientation: IC50 means the concentration that gives 50% inhibition.

The nature of the series: Antioxidant activity assessed as ABTS radical scavenging activity after 60 mins. The class given is physicochemical.
As to `CCOC(=O)[C@@H]1C(=O)N(Cc2ccccc2)C[C@@H](ON2C(C)(C)CCCC2(C)C)[C@H]1c1ccc(C)cc1`, the IC50 is 98.4 µM.

In the case of `Cc1ccc([C@H]2[C@H](CO)CN(Cc3ccccc3)C[C@H]2ON2C(C)(C)CCCC2(C)C)cc1`, the IC50 came to 0.09 µM.

As to `CCOC(=O)[C@@H]1C(=O)N(Cc2ccccc2)C[C@@H](O)[C@H]1c1ccccc1`, the IC50 was greater than 100 µM.

Consider `CCOC(=O)[C@@H]1C(=O)N(Cc2ccccc2)C[C@@H](O)[C@H]1c1ccc(C)cc1`, for which the IC50 was greater than 100 µM.

Consider `Cc1ccc([C@H]2[C@H](CO)CN(Cc3ccccc3)C[C@H]2O)cc1`, for which the IC50 was 85.3 µM.

On to `OC[C@@H]1CN(Cc2ccccc2)CC[C@H]1c1ccccc1`, for which the IC50 is greater than 100 µM.

In the case of `OC[C@@H]1CN(Cc2ccccc2)C[C@@H](O)[C@H]1c1ccccc1`, the IC50 was greater than 100 µM.

As for `CC1(C)CCCC(C)(C)N1O[C@@H]1CN(Cc2ccccc2)C[C@@H](CO)[C@@H]1c1ccc(F)cc1`, the IC50 worked out at 0.095 µM.

In the case of `OC[C@@H]1CN(Cc2ccccc2)C[C@@H](O)[C@H]1c1ccc(F)cc1`, the IC50 was found to be 9.61 µM.

As to `CCOC(=O)[C@@H]1C(=O)N(Cc2ccccc2)C[C@@H](ON2C(C)(C)CCCC2(C)C)[C@H]1c1ccc(F)cc1`, the IC50 came to 15.9 µM.

Take `CCOC(=O)[C@@H]1C(=O)N(Cc2ccccc2)C[C@@H](ON2C(C)(C)CCCC2(C)C)[C@H]1c1ccccc1`: the half-maximal inhibitory concentration (IC50) amounted to 12.2 µM.

`CCOC(=O)[C@@H]1C(=O)N(Cc2ccccc2)CC[C@H]1c1ccccc1`: the IC50 is greater than 100 µM.

As to `CC(=O)OC[C@@H]1CN(Cc2ccccc2)C[C@@H](ON2C(C)(C)CCCC2(C)C)[C@H]1c1ccccc1`, the IC50 came to 0.573 µM.

For `CCOC(=O)[C@@H]1C(=O)N(Cc2ccccc2)C[C@@H](O)[C@H]1c1ccc(F)cc1`, the IC50 is greater than 100 µM.

With `CC1(C)CCCC(C)(C)N1O[C@@H]1CN(Cc2ccccc2)C[C@@H](CO)[C@@H]1c1ccccc1`, the IC50 came out at 0.093 µM.

Take `CC1(C)CCCC(C)(C)N1[O]`: the IC50 came to 0.026 µM.

Consider `O=C1O[C@H]([C@@H](O)CO)C(O)=C1O` [ASCORBIC ACID], for which the IC50 is 25.6 µM.

With `O=c1c(O)c(-c2ccc(O)c(O)c2)oc2cc(O)cc(O)c12` [QUERCETIN], the IC50 amounted to 5.57 µM.
